Experimental data published in patent US10179939B2, “Growth-independent detection of cells” (GeneWeave Biosciences, Inc., priority 2014, dated 2019).

Experiments:
[1] = test system: MRSA; assay: Non-replicative transduction particle luxAB reporter assay with cefoxitin; type: cell-based, S. aureus; settings: cells phenotypically resistant to cefoxitin (MRSA); cefoxitin added prior to, simultaneously with, or after transduction particles
Excerpt: (§1) To test the functionality of non-replicative transduction particles as reporters for detecting the presence of S. aureus cells, various MSSA/MRSA reporter assays were developed. In an embodiment, a non-replicative transduction particle was developed from a S. aureus-specific bacteriophage, and the bacterial luciferase genes luxAB under the control of a constitutive promoter were incorporated. When the non-replicative transduction particle delivered the reporter nucleic acid into S. aureus, the constitutive promoter expressed luxAB suitable for reporting on the presence of a viable S. aureus.
(§2) In addition, the antibiotic cefoxitin was added prior to, simultaneously with, or after the addition of the transduction particles to a sample containing S. aureus cells.

[2] = test system: MSSA; assay: as above; type: cell-based, S. aureus; settings: cells not phenotypically resistant to cefoxitin (MSSA); cefoxitin added prior to, simultaneously with, or after transduction particles
Excerpt: as §1, §2

CO[C@@]1(NC(=O)Cc2cccs2)C(=O)N2C(C(=O)O)=C(COC(N)=O)CS[C@@H]21 [cefoxitin]
luminescence [1]: increased or detectable luminescence
luminescence [2]: decreased or eliminated
